Measured values from patent US20230399361A1, “MACROCYCLIC PEPTIDES” (UNIVERSITY OF NOTRE DAME DU LAC, priority 2022, published 2023).
“Also recorded” adds a separate entry of the source. *1 amine or outer side, *2 acyl side, *3 side chain or, on linkers, in order; H or OH if unused. Where a SMILES comes first, the peptide text is derived from it. Primed or numbered codes have the meaning given here. [ ]: non-standard residue; d: D form. The star is where a group is joined. aIle′ = Ile with backbone amide N-amino (hydrazide NNH2), CC[C@H](C)[C@@H](C(=O)[*:2])N(N)[*:1]; aVal = Val with backbone amide N-amino (hydrazide NNH2), CC(C)[C@@H](C(=O)[*:2])N(N)[*:1]; X2 = NN([C@@H](Cc1ccc(O)cc1)C(=O)[*:2])[*:1]; X1 = CC[C@H](C)[C@@H](C(=O)[*:2])N(N)[*:1]; N(NH2)LysNH2 = NCCCC[C@@H](C(N)=O)N(N)*; X3 = CC(C)[C@@H](C(=O)[*:2])N(N)[*:1]

Experiments:
tauP301L [1] = molecular target: T1, tauP301L (Homo sapiens, UniProt P10636, P618L); assay: Transmission electron microscopy of heparin-induced tauP301L fibrils; format: biochemical; conditions: 10 μM tauP301L + heparin, 20 μM NAP (2-fold molar excess), 96 h
T1 construct: we expressed and purified full-length tau featuring a P301L mutation; His6 (N); made in house; host or cells: E. coli BL21 (DE3)
Procedure: This is consistent with previous reports showing that the endpoint ThT fluorescence and fibrilization lag time for full-length tau are particularly resistant to perturbation by inhibitors. […] To confirm the effect of NAPs on the growth of mature tau fibrils, we used transmission electron microscopy (TEM) to visualize the morphology and maturity of fibrillar species. Heparin-induced tauP301L fibrils were allowed to grow over 96 h in the presence or absence of inhibitors. Untreated tauP301L afforded large, helical, and amyloid-like filamentous fibrils.
Inhibition of full-length tau fibrilization by mxyl-NAPs in TEM. To confirm the results from ThT assays, we used TEM to visualize tauP301L fibrils in the absence or presence of synthesized NAPs. As expected, heparin-induced tauP301L formed dense networks of mature fibrils (FIG. 8).
Transmission Electron Microscopy. For analyzing fibrils by TEM, aggregation was carried out under conditions similar to the assay performed above but with ThT excluded and a final reaction volume of 100 μL. Samples were incubated in a microcentrifuge tube for 4 days at 37° C. with a mixing speed of 100 rpm. A 10 μL aliquot of the sample was then applied to 400-meshed formvar-/carbon-coated copper grids and negative-stained with 2% uranyl acetate. Micrographs were obtained on a JEOL 2011 transmission electron microscope at 200 kV.

tauP301L fibrils = molecular target: T2, tauP301L fibrils (Homo sapiens, UniProt P10636, P618L); assay: Cellular seeding assay with pre-formed tauP301L fibrils, HEK293 tau-RD(LM)-YFP biosensor cells; format: cell-based; conditions: for inhibition of propagation of pre-formed tauP301L fibrils: mature fibrils incubated with NAP 36 h before cells; for IC50: pre-formed 0.19 μM tauP301L fibrils treated 36 h with NAP, cells 48 h, three repeated experiments, read-out: fibril capping IC50 in cells; for inhibition of endogenous tau aggregation without co-incubation: without the 36 h inhibitor + mature fibril co-incubation period
T2 construct: we expressed and purified full-length tau featuring a P301L mutation; His6 (N); made in house; host or cells: E. coli BL21 (DE3)
Procedure: Given that pathogenic tau can be secreted from cells in various forms (as oligomers, aggregates, or mature fibrils), we tested whether NAPs could block the cellular transmission of pre-formed fibrils. In this experiment, NAPs were incubated with mature tauP301L fibrils for 36 h prior to treatment of cells expressing tau-RD(LM)-YFP. […] We determined a fibril capping IC50 in cells in the 5 μM range across three repeated experiments (FIG. 4).
We then considered the possibility of di-NAPs 12 and 13 entering cells and inhibiting seeding by interacting with endogenous tau-RD(LM)-YFP, rather than with extracellular pre-formed fibrils. We thus repeated the experiment without the 36 h inhibitor+mature fibril co-incubation period.
For seeding experiments with fibrillar tau, recombinant tauP301L fibrils were prepared as described above (see the section on fibril formation) and sonicated for 3 min prior to use in this assay. In a reaction volume of 40, 8 μL of fibrils was diluted with 31 μL of low-serum Opti-MEM medium and then mixed with 1 μL of NAPs (DMSO concentration was constant across various concentrations of inhibitors). The reaction mixture was then allowed to incubate at 37° C. for 36 h, then mixed with 2 μL of Lipofectamine 2000, and further incubated for 20 min at rt. A 10 μL aliquot of this mixture was then added to 90 μL of cells (15,000 cells/well). Cells were incubated for additional 48 h before taking measurements on a BioTek Cytation 5 cell imager and a microplate reader. 10×10 pictures/well were taken at 20× magnification under an FITC channel, and the punctate counting were carried out using built-in software. […] Every experiment included control wells (no tau, no heparin, and no NAP). All data plots were generated with SigmaPlot. IC50 values were calculated by fitting the data set using the sigmoidal logistic four-parameter equation. Error bars represent standard deviation from technical replicates.

tauP301L [2] = molecular target: T1, tauP301L; assay: ThT fluorescence aggregation assay of recombinant tauP301L; format: biochemical; conditions: 20 μM NAP (2-fold molar excess), 10 μM tauP301L, heparin, 48 h
Excerpt: NAP Tau Mimics Inhibit Tau Fibrilization In Vitro. We chose thioflavin T (ThT), an amyloid specific fluorescent dye that binds to β-sheet assemblies, to first evaluate the effect of NAPs on recombinant tau aggregation. For these studies, we expressed and purified full-length tau featuring a P301L mutation frequently observed in patients with frontotemporal dementia and Parkinsonism linked to chromosome 17 (FTDP-17). This missense mutation leads to local structure destabilization around the amyloid-forming region resulting in faster aggregation. Recombinant tauP301L aggregated in the presence of equimolar heparin sulfate (t1/2=6.5±0.4 h) starting with a very short 0.5 h lag phase, followed by a 24 h exponential growth phase. […] Compounds 2 and 4 are mono- and diaminated hexapeptides derived from the R2 PHF6* aggregation-prone sequence, whereas compounds 5, 6, 12, and 13 are all derived from the R3 PHF6 sequence. Several other NAPs had no effect on endpoint ThT fluorescence or lacked consistent inhibition across repeated experiments. […] NaOAc buffer, as evidenced by intense ThT fluorescence after 48 h (FIG. 1B).
Inhibition of full-length tau aggregation by mxyl-NAPs in a ThT assay. […] TauP301L ([…]) aggregated upon incubation with heparin over the course of 2 days, leading to high ThT fluorescence. […] We also synthesized linear and scrambled controls corresponding to each of the NAP inhibitors.
ThT Fluorescence Aggregation Assay. Recombinant tauP301L (10 μM final concentration) and NAP inhibitors (20 μM final concentration) were mixed in an aggregation buffer (100 mM sodium acetate, 10 μM ThT, 10 μM heparin, 2 mM DTT, and 0.5% DMSO, pH: 7.4) in a 96-well clear bottom black plate with a final reaction volume of 200 μL. The plate was then sealed with a clear sealing film and allowed to incubate at 37° C. with continuous shaking in a Biotek Synergy H1 microplate reader. An automated method was used to carry out ThT fluorescence measurements at an excitation wavelength of 444 nm and an emission wavelength of 485 nm at an interval of every 5 min for 48 h. Experiments were carried out in technical replicates on at least 2 different days. Every experiment included control wells that lacked tauP301L, heparin, or NAPs. The average signal from control wells lacking tau was used to subtract the background fluorescence, and the average of the first and last 10 data points of tau+heparin (no inhibitor) wells, after blank subtraction, was used to normalize the data. All data plots were generated with SigmaPlot.

T2 sequence (P10636 1-383 isoform P10636-6 P243L): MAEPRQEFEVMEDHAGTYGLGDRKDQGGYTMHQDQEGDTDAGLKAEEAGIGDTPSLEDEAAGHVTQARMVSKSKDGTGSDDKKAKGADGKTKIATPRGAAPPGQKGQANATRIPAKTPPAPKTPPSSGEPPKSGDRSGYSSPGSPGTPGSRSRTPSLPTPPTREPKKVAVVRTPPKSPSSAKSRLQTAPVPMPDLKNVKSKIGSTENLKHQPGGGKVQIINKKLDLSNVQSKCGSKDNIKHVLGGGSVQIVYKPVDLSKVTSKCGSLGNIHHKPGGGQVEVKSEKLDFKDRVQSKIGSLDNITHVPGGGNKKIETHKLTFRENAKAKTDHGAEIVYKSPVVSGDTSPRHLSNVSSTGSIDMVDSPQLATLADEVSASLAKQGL
T1 sequence (P10636 1-383 isoform P10636-6 P243L): as above

Compound | tauP301L fibril morphology by TEM (tauP301L [1]) | inhibition of propagation of pre-formed tauP301L fibrils (tauP301L fibrils) | IC50 (tauP301L fibrils) [µM] | inhibition of endogenous tau aggregation without co-incubation (tauP301L fibrils) | endpoint ThT fluorescence of tauP301L (tauP301L [2])
CC[C@H](C)[C@@H](C(=O)N[C@H](C(=O)N(N)[C@@H](Cc1ccc(O)cc1)C(=O)N[C@@H](CCCCN)C(N)=O)C(C)C)N(N)C(=O)[C@H](CCC(N)=O)NC(=O)[C@@H](NC(C)=O)C(C)C [Compound 12, Ac-Val-Gln-aIle-Val-aTyr-Lys-NH2] (Ac-VQ[X1]V[X2]K-NH2) | particularly effective at attenuating fibril growth; also recorded: non-fibrillary amorphous aggregates similar to control | effectively inhibit propagation in a dose-dependent manner | ~5 | failed to inhibit endogenous tau aggregation | significantly reduce
CC[C@H](C)[C@H](NC(=O)[C@H](CCC(N)=O)NC(=O)[C@@H](NC(C)=O)C(C)C)C(=O)N(N)[C@H](C(=O)N[C@@H](Cc1ccc(O)cc1)C(=O)N(N)[C@@H](CCCCN)C(N)=O)C(C)C [Compound 13, Ac-Val-Gln-Ile-aVal-Tyr-aLys-NH2] (Ac-VQI[X3]Y-{N(NH2)LysNH2}) | particularly effective at attenuating fibril growth; also recorded: non-fibrillary amorphous aggregates similar to control | effectively inhibit propagation in a dose-dependent manner | ~5 | failed to inhibit endogenous tau aggregation | significantly reduce
Ac-aVal-Gln-aIle-Ile-Asn-Lys-NH2 (Ac-[aVal]Q[aIle′]INK-NH2; SMILES CC[C@H](C)[C@H](NC(=O)[C@H]([C@@H](C)CC)N(N)C(=O)[C@H](CCC(N)=O)NC(=O)[C@H](C(C)C)N(N)C(C)=O)C(=O)N[C@@H](CC(N)=O)C(=O)N[C@@H](CCCCN)C(N)=O) [Compound 4] | particularly effective at attenuating fibril growth; also recorded: non-fibrillary amorphous aggregates similar to control | generally ineffective |  |  | significantly reduce
